Test results from patent US20220396825A1, “METHOD FOR PREPARING […]” (KAO CORPORATION, priority 2019, published 2022).
Values joined by “and” are separate entries in the source; they are usually repeats but may differ in a detail not shown here. Identical values can stand only once.

Tests used:
Assay type in all cases: cell-based, Salmonella typhimurium
genome of TA100 strain [1] = test: Mutation frequency in 3-MC-exposed library by sequencing utilizing information on complementary strands
TA100 strain = test: Ames test (pre-incubation method), number of revertant colonies; conditions: S9 mix; for Number of revertants: individual plates 1-3; for Number of revertants, Mean: mean of three plates
Protocol: Exposure of the TA100 cell line to DMSO was performed in accordance with the Ames pre-incubation method (Mol. Mech. Mutagen., 455:29-60, 2000, Sci. Rep. 8 (1):9583). TA100 strain was seeded in 2 mL of Nutrient Broth No. 2 (produced by Oxoid Limited), and subjected to shaking culture at 37° C. and 180 rpm for 4 hours to afford pre-culture solution with an OD660 value of 1.0 or higher. Into test tubes, 100 μL of DMSO, 500 μL of S9 mix (produced by IEDA TRADING Corporation), and 100 μL of the pre-culture solution were added, and the resultants were subjected to shaking culture at 100 rpm in a water bath at 37° C. for 20 minutes (DMSO-exposed cells). After shaking culture for 20 minutes, the test tubes each containing a culture solution were taken out of the water bath, and 50 μL of each culture solution was added to 2 mL of Nutrient Broth solution (containing 18.5% S9 mix) aliquoted in advance, and the resultant was further cultured in an incubator at 37° C. and 180 rpm for 14 hours. After the culture, the bacterial suspensions were collected and centrifuged at 7,500 rpm for 5 minutes, and the supernatants were removed to collect the cells. From the DMSO-exposed cells, total DNA was collected by using a DNeasy Blood & Tissue Kit (produced by QIAGEN) in accordance with the recommended protocol. The double-stranded DNA concentration of each DNA sample obtained was measured by using a Qubit3.0 Fluorometer (produced by Thermo Fisher Scientific) with a Qubit™ dsDNA BR Assay Kit attached thereto.
DMSO-exposed cells were prepared with the same procedure as in 1) of Comparative Example 1, and TA100 strain was exposed to 3-methylcholanthrene (3-MC) with the same procedure. In DMSO, 3-MC (produced by Sigma-Aldrich Co. LLC., CASRN.56-49-5) was dissolved. Into test tubes, 100 μL of the 3-MC solution, 500 μL of S9 mix (produced by IEDA TRADING Corporation), and 100 μL of the pre-culture solution for TA100 strain were added ([…]), and the resultants were subjected to shaking culture at 100 rpm in a water bath at 37° C. for 20 minutes (3-MC-exposed cells). Cells were collected from the bacterial suspensions, and DNA was extracted with the same procedure as in 1) of Comparative Example 1.
For the Ames test, a bacterial suspension exposed to 3-MC under the above-described conditions was prepared. Thereto, 2 mL of top agar (containing 1% NaCl, 1% agar, 0.05 mM histidine, and 0.05 mM biotin) warmed to 45° C. was added and the resultant was stirred by using a Vortex, and poured onto a minimal glucose agar medium (Tesmedia® AN; produced by Oriental Yeast Co., Ltd.) to form a layer. The resulting plate was subjected to culturing at 37° C. for 48 hours, and the number of colonies observed was counted.

genome of TA100 strain [2] = test: Mutation frequency in 3-MC-exposed library by sequencing utilizing information on complementary strands; remark: listed apart in the source
Description: The flows of a sequencing method and mutation analysis used in Comparative Examples and Examples described later will be described in the following. Fundamentally, the highly accurate sequencing method utilizing information on complementary strands, which is described in Patent Literature 4, was used. Specifically, a library was subjected to sequencing, and read pairs expected to be derived from the same DNA fragment were collected. Then, a consensus read sequence (a consensus read sequence considering complementary strands) was generated among read sequences expected to be derived from two complementary strands (hereinafter, referred to as strand A and strand B) of the DNA fragment. Acquired consensus read sequences considering complementary strands were used for mutation analysis.
DMSO-exposed cells were prepared with the same procedure as in 1) of Comparative Example 1, and TA100 strain was exposed to 3-methylcholanthrene (3-MC) with the same procedure. In DMSO, 3-MC (produced by Sigma-Aldrich Co. LLC., CASRN.56-49-5) was dissolved. Into test tubes, 100 μL of the 3-MC solution, 500 μL of S9 mix (produced by IEDA TRADING Corporation), and 100 μL of the pre-culture solution for TA100 strain were added (amount of 3-MC: 1000 μg/tube), and the resultants were subjected to shaking culture at 100 rpm in a water bath at 37° C. for 20 minutes (3-MC-exposed cells). Cells were collected from the bacterial suspensions, and DNA was extracted with the same procedure as in 1) of Comparative Example 1.
From DNA derived from the DMSO-exposed cells or the 3-MC-exposed cells, a plurality of samples each of which was to give 60 ng or 100 ng of DNA were prepared, and the samples were each fragmented into pieces having a length of approximately 350 bp on average by using a DNA Shearing System ME220. The fragments of each sample were divided into two groups. For the group without nuclease treatment (nontreatment group), the DNA fragments were suspended in Resuspension buffer attached to the TruSeq for End Repair in the subsequent step in accordance with the recommended protocol to afford 60 μL of eluate. For the group with nuclease treatment (treatment group), the DNA fragments were purified through steps of adsorbing on Sample Purification Beads attached to the TruSeq (hereinafter, also expressed as beads, simply), washing twice with 80% ethanol water, and drying in accordance with the recommended protocol. In the subsequent elution operation, the beads were suspended in distilled water (DW, produced by NIPPON GENE CO., LTD.) to afford 30 μL of DNA eluate containing DNA fragments.
To the DNA eluate obtained in I), 4 μL of 10× Reaction Buffer attached to the S1 nuclease was added. The S1 nuclease was appropriately diluted with 1× Reaction Buffer, 1, 3, 10, 30, 100, or 300 U thereof was added to the DNA eluate, and DW was added thereto to a total volume of 40 μL. For the sample to which 1000 U of the S1 nuclease was to be added, 4.6 μL of 10× Reaction Buffer was added to 30 μL of the DNA eluate obtained by beads purification, and 12 μL of the stock solution of the S1 nuclease was added thereto to a total volume of 46 μL. Each reaction solution with the S1 nuclease was incubated at 30° C. for 30 minutes. Assuming that the whole amount of DNA (60 ng) present at the beginning of library preparation existed in each reaction solution, the numbers of units of the S1 nuclease per 1 ng of DNA were 0.02, 0.05, 0.17, 0.50, 1.67, 5.00, and 16.7 U/ng. For inactivation of the S1 nuclease in each reaction solution, 3 μL of 0.5 M EDTA (pH 8.0) (produced by NIPPON GENE CO., LTD.) was added, and the resultant was incubated at 70° C. for 10 minutes. […]

Cc1ccc2cc3c(ccc4ccccc43)c3c2c1CC3 [3-MC, 3-methylcholanthrene]
GC → TA mutation frequency increase rate (3MC/DMSO control), SN ratio (genome of TA100 strain [1]; library treated with RecJf 0.03 U/ng): 1.48 | GC → TA mutation frequency increase rate (3MC/DMSO control), SN ratio (genome of TA100 strain [1]; library treated with RecJf 0.10 U/ng): 2.14 | GC → TA mutation frequency increase rate (3MC/DMSO control), SN ratio (genome of TA100 strain [1]; library treated with RecJf 0.30 U/ng): 1.68 | Number of revertants (TA100 strain; 3-MC 10 μg/plate): 887 and 881 and 1279 | Number of revertants, Mean (TA100 strain; 3-MC 10 μg/plate): 1016 | Number of revertants (TA100 strain; 3-MC 20 μg/plate): 1539 and 1484 and 1509 | Number of revertants, Mean (TA100 strain; 3-MC 20 μg/plate): 1511 | Number of revertants (TA100 strain; 3-MC 100 μg/plate): 1519 and 1539 and 1797 | Number of revertants, Mean (TA100 strain; 3-MC 100 μg/plate): 1618 | SN ratio determined from mean values of GC→TA mutation frequency (genome of TA100 strain [2]; 3-MC vs DMSO control, without MBN treatment, each n=3): 1.61 | mean value of mutation frequency for GC→TA (genome of TA100 strain [2]; 3-MC-exposed, without MBN treatment, n=3): 0.176×10^−6 | GC → TA mutation frequency increase rate (3MC/DMSO control), SN ratio (genome of TA100 strain [2]; MBN experiment, MBN 0 U/ng (nontreatment)): 2.04 | GC → TA mutation frequency increase rate (3MC/DMSO control), SN ratio (genome of TA100 strain [2]; RecJf experiment, RecJf 0 U/ng (nontreatment)): 2.04 | GC → TA mutation frequency increase rate (3MC/DMSO control), SN ratio (genome of TA100 strain [2]; library S1 nuclease 0 U/ng (nontreatment)): 1.27 | GC → TA mutation frequency increase rate (3MC/DMSO control), SN ratio (genome of TA100 strain [2]; library treated with MBN 0.03 U/ng): 1.60 | GC → TA mutation frequency increase rate (3MC/DMSO control), SN ratio (genome of TA100 strain [2]; library treated with MBN 0.10 U/ng): 1.81 | GC → TA mutation frequency increase rate (3MC/DMSO control), SN ratio (genome of TA100 strain [2]; library treated with MBN 0.30 U/ng): 1.34 | GC → TA mutation frequency increase rate (3MC/DMSO control), SN ratio (genome of TA100 strain [2]; library treated with MBN 1.00 U/ng): 1.92 | GC → TA mutation frequency increase rate (3MC/DMSO control), SN ratio (genome of TA100 strain [2]; library treated with RecJf 1.00 U/ng): 1.94 | GC → TA mutation frequency increase rate (3MC/DMSO control), SN ratio (genome of TA100 strain [2]; library treated with S1 nuclease 0.02 U/ng): 2.1 | GC → TA mutation frequency increase rate (3MC/DMSO control), SN ratio (genome of TA100 strain [2]; library treated with S1 nuclease 0.05 U/ng): 1.97 | GC → TA mutation frequency increase rate (3MC/DMSO control), SN ratio (genome of TA100 strain [2]; library treated with S1 nuclease 0.17 U/ng): 2.72 | GC → TA mutation frequency increase rate (3MC/DMSO control), SN ratio (genome of TA100 strain [2]; library treated with S1 nuclease 0.50 U/ng): 3.75 | GC → TA mutation frequency increase rate (3MC/DMSO control), SN ratio (genome of TA100 strain [2]; library treated with S1 nuclease 1.67 U/ng): 3.35 | GC → TA mutation frequency increase rate (3MC/DMSO control), SN ratio (genome of TA100 strain [2]; library treated with S1 nuclease 5.00 U/ng): 1.63 | GC → TA mutation frequency increase rate (3MC/DMSO control), SN ratio (genome of TA100 strain [2]; library treated with S1 nuclease 16.7 U/ng): 3.59
